Measurements published in patent US9149547B2, “Process for production of heterodimers of glutamic acid” (Molecular Insight Pharmaceuticals, Inc., priority 2009, dated 2015).

Key:
[1] = Stability at room temperature, free I-123 content quantitated by HPLC; type: physicochemical
Experimental: Stability Results: Stability was evaluated for up to 2 days at room temperature by quantitation of free 1-123 content present by HPLC. The stability was determined at room temperature in an attempt to accelerate any product degradation to more rapidly assess the effectiveness of each radioprotectants in the formulation matrix.

[2] = Stability profile of final formulation at room temperature (FIG. 4); type: physicochemical; conditions: 6% sodium ascorbate/ascorbic acid with 2.3% sodium gentisate in sterile water for injection, compared to formulation of PBS (pH=9.0)
Experimental: In a 5 mL vial containing [^123I]NaI was added sterile water for injection (SWFI) (50 μL), 50% sulfuric acid in SWFI (50 μL), oxidant (100 μL) (which was prepared fresh via the incubation of acetic acid (0.2 mL) and 30% hydrogen peroxide (0.335 mL) followed by dilution to a final volume of 5 mL with SWFI), acetonitrile (0.5 mL), and the trimethylstannane precursor, Sn-MIP-1095 (compound 9) (100 μL of a 1 mg/mL solution in acetonitrile). The mixture was vortexed for 1 min and allowed to incubate at room temperature for an additional 10 minutes. The reaction was quenched with 200 μL of 0.1 M sodium thiosulfate. The product was then diluted in 18 mL of SWFI and loaded onto a C18 Sep Pak Plus column. The column was washed with 60 mL SWFI to remove unreacted radioiodine and inorganic and organic salts. The Sn-MIP-1095 precursor and ^123I-MIP-1095 ester are retained on the column. ^123I-MIP-1095 ester was eluted from the column using 4 mL of ethanol, while the Sn-MIP-1095 precursor was retained on the column. The resulting solution, containing the ^123I-MIP-1095 ester, was evaporated to dryness under a stream of nitrogen and the residue was dissolved in methylene chloride (0.5 mL) and TFA (2 mL) was added to remove the ester protecting groups. The deprotection solution was incubated at room temperature for 45 minutes. […]

Row | SMILES | stability of formulation ([1]; 6% ascorbate/3% gentisate formulation, 250 mCi scale-up runs) | increase in free iodine ([1]; stored at room temperature, evaluated for up to 2 days, free I-123 by HPLC) | stability profile of final formulation [2]
1 | O=C(O)CC[C@H](NC(=O)N[C@@H](CCCCNCc1ccc(I)cc1)C(=O)O)C(=O)O [^123I-MIP-1072, ^123I—(S)-2-(3-((S)-1-carboxy-5-(4-iodobenzylamino)pentyl)ureido)pentanedioic Acid] | good stability | 3-5 % per day | –
2 | O=C(O)CC[C@H](NC(=O)N[C@@H](CCCCNC(=O)Nc1ccc(I)cc1)C(=O)O)C(=O)O [^123I-MIP-1095, ^123I—(S)-2-(3-((S)-1-Carboxy-5-(3-(4-iodophenyl)ureido)pentyl)ureido)pentanedioic Acid] | – | – | stable profile
